The text below walks through data of US5306710A, “Method for treating endotoxin shock with CRF” (Regents of the University of California, priority 1992, dated 1994).

No end group written: not given here.

Assay [1] concerns rat brain after cold injury (vascular permeability). Put plainly: Freeze (cold) injury to brain, Monastral blue vascular leakage. The class given is in vivo. The source says:
An in vivo model of injury to study brain edema has been developed as a reproducible edema model, which has the features of immediate cortical damage followed by the subsequent development of brain edema. This model is described by Chan et al., Brain Research 277, pp. 329-337 (1983). The model uses rats which are anesthetized. A 2.5 cm incision is made over the sagittal suture and the bone of the right hemisphere exposed. A 60 mm^2 plate attached to a brass cup filled with dry ice-acetone mixture, with a temperature of -50° C., is applied to the rat skull for one minute. The animals are sacrificed at various intervals after the onset of cold-injury. A dye is administered intravenously before the freezing. Cortical slices are then obtained of the brain.
16 male rats were randomly divided into eight pairs and one rat in each pair received either saline or CRF (subcutaneously twice at 30 μg/kg, 30 min and 10 min before cold injury). The animals were anesthetized with sodium pentobarbital, 60 mg/kg intraperitoneally, and injected with Monastral blue, 60 mg/kg intravenously. A cold probe was applied onto the skull for […] and the brains taken out 1 hour after cold injury. The staining of brain tissues with Monastral blue, a colloidal pigment that gets trapped between the albuminal surface of the endothelial cell and the basement membrane, was proportional to the degree of vascular leakage. The results from the first pair are shown as FIG. 1.
The size of the lesion, measured as area in mm^2, and the degree of staining intensity, were quantified using an image-analysis software program called JAVA (Jandel Corporation, San Rafeal, Calif.). The stain intensity, given in arbitrary units, was internally calibrated using Monastral blue solutions (1-30 mg/ml) placed on white filter paper. Values are mean ±S. E. M.

Another assay concerns PAF-acether. The assay is described as follows: Vascular leakage produced by PAF-acether injected subcutaneously into the abdomen. Conditions: CRF 30 μg/kg s.c. 30 min before PAF-acether. The class given is in vivo, rat. As for the experimental part:
(§1) CRF: 30 μg/kg s.c. injected 30 min before subcutaneous
(§2) injection of PAF-acether (1 μg/0.1 ml/rat) into the
(§3) abdomen; muscle removed 0.5 hr later.

Assay in assay [2]: as above
Conditions: CRF 30 μg/kg s.c. 30 min before PAF-acether 1 μg/0.1 ml/rat s.c.; muscle removed 0.5 hr later. The class given is in vivo, rat. As for the experimental part:
as §1, §2, §3

The next assay deals with rat pawskin. To be noted: mediators injected into the rat pawskin; previously shown; cited from earlier work.
Assay [3] deals with rat brain after cold injury (brain edema). The assay is described as follows: Freeze injury to cerebral cortex, water and sodium content as index of brain edema. The class given is in vivo. To be noted: CRF 30 μg/kg s.c. 2×, tissues 3 hr after cold injury, ± S.E.M., N = 5. As for the experimental part: In a second set of experiments, the brain surface, namely the cerebral cortex, was injured by freezing and the water and sodium content were measured in the cerebral cortex and in the basal ganglia, a part of the brain away from the freeze zone. The water and sodium content of the brain tissue served as an index of brain edema. After freeze injury, the water and sodium content of the cerebral cortex were evaluated relative to non-frozen tissues. CRF administered in two separate doses of 30 μg/kg subcutaneously, one dose 15 min. before the injury and the second dose 90 min. after the first dose, inhibited the two indices of brain edema.
Male SpragueDawley rats, 300-325 g, anesthetized with
ketamineacepromazine, were injected saline or CRF (30 μg/kg s.c.
2×) and injury to cerebral cortex was produced by applying a cold
probe to the skull for 1 min. Brain tissues were obtained 3 hr later and
analyzed for water and sodium content.

The test system of assay [4] is rat abdominal muscle after celiotomy (vascular leakage). Put plainly: Vascular leakage after celiotomy (4 cm midline incision through abdominal muscle wall), Monastral blue. The class given is in vivo. To be noted: for Area / Intensity / Lesion Size: tissues 0.5 hr after surgery. As to the method:
Experiments were conducted on male Sprague-Dawley rats 243±15 gm (S. D., Simonsen Labs., Gilroy, Calif.) anesthetized with sodium pentobarbital, 60 mg/kg i.p. Monastral blue, 60 mg/kg i.v., was injected 0.2 ml/100 g, 3 min. before a 4 cm midline incision through the abdominal muscle wall (celiotomy). Saline or CRF was administered to randomizd pairs with N=8 rats per group. The size of the lesion, measured as area in mm^2, an its light intensity, were quantified using the JAVA image-analysis software program. The light intensity, given in arbitrary units, was internally calibrated using Monastral blue solutions (1-30 mg/ml) placed on white filter paper. Values are mean ±S. E. M. FIG. 2 illustrates the respective amount of vascular permeability for one pair of rats (control and treated). Tables III and IV set out data from these experiments.
CRF: injected at various doses subcutaneously 30 min
before a 4 cm midline incision, tissues taken 0.5 hr
CRF: 30 μg/kg s.c. injected 2 hr before a 4 cm midline
incision, tissues taken 0.5 hr after surgery

In another assay the test system is blood pressure. To be noted: prior art report; cited from earlier work.
A further assay has as its system ACTH. To be noted: prior art report; cited from earlier work.
Setting [5] is: CRF 15 μg/kg s.c. 30 min before incision.
[6] abbreviates: CRF 30 μg/kg s.c. 30 min before incision.
The mark [7] stands for this setting: CRF 30 μg/kg s.c. 2 hr before incision.
Setting [8] is: CRF 60 μg/kg s.c. 30 min before incision.

For the substance “Corticotropin-Releasing Factor (SEEPPISLDLTFHLLREVLEMARAEQLAQQAHSNRKLMEII; not fully specified; ends and bridges not checked; UniProt P06850 154-194, looked up) [CRF]”, the “blinded observer's correct assignment of brains to saline or CRF group” value in assay [1] (eight pairs of rats, more damaged vs less damaged brain) is reported as 8 out of 8. For the same substance, the “lesion size relative to that of the saline-treated group” value was found to be 44% in assay [1] (rat, CRF 30 μg/kg s.c. twice before cold injury); 63% in assay [4] (setting [5]); 42% in assay [4] (setting [6]); 59% in assay [4] (setting [7]); 29% in assay [4] (setting [8]). For the same substance, the “Intensity (stain intensity)” value in assay [1] (rat, CRF 30 μg/kg s.c. twice, 30 min and 10 min before cold injury, brains taken 1 hour after injury, mean ± S.E.M.) is on record as 2.0 ± 0.05 arbitrary units. For the same substance, in the assay with PAF-acether, the “muscle lesion size relative to that of the saline-treated control group” value was 44%. Further, the Intensity stood at 1.4 ± 0.05 in assay [2]; 2.0 ± 0.03 arbitrary units in assay [4] (setting [5]); 1.9 ± 0.05 arbitrary units in assay [4] (setting [6]); 1.9 ± 0.03 arbitrary units in assay [4] (setting [7]); 1.8 ± 0.05 arbitrary units in assay [4] (setting [8]). Also, in the assay with rat pawskin, the “effect on edema-producing properties of inflammatory mediators (serotonin, substance P, bradykinin, neurotensin, histamine)” value was “antagonize the edema-producing properties of these mediators”. In assay [3] (injured cerebral cortex), the “SODIUM, cerebral cortex” value came to 271 ± 8 mEg/kg dry wt. Further, the “WATER CONTENT, cerebral cortex” value in assay [3] (injured cerebral cortex) is reported as 77 ± 4%. The “SODIUM, basal ganglia” value in assay [3] (non-injured basal ganglia) stood at 215 ± 9 mEg/kg dry wt. In assay [3] (non-injured basal ganglia), the “WATER CONTENT, basal ganglia” value was determined as 76 ± 1%. Besides, the Area is 505 ± 16 mm^2 in assay [4] (setting [5]), 361 ± 18 mm^2 in assay [4] (setting [6]), 477 ± 31 mm^2 in assay [4] (setting [7]) and 257 ± 3 mm^2 in assay [4] (setting [8]). Besides, the “Lesion Size” value in assay [4] (setting [5]) came to 1031 ± 44; in assay [4] (setting [6]), 676 ± 47; in assay [4] (setting [7]), 919 ± 51; in assay [4] (setting [8]), 468 ± 19.
Regarding “oCRF: ovine (sheep) CRF, synthetic, disclosed in U.S. Pat. No. 4,415,558 (SQEPPISLDLTFHLLREVLEMTKADQLAQQAHSNRKLLDIA; not fully specified; ends and bridges not checked; UniProt P01142 148-188, looked up)”, the “effect on blood pressure” value in the assay with blood pressure is on record as “lower blood pressure”.
For “sauvagine (QGPPISIDLSLELLRKMIEIEKQEKEKQQAANNRLLLDTI; not fully specified; ends and bridges not checked; UniProt P01144 1-40, looked up) [40 amino acid peptide generally similar to CRF]”, the “effect on ACTH secretion” value in the assay on ACTH was “stimulating the secretion of ACTH and -endorphin”. Further, the “effect on blood pressure” value in the assay with blood pressure is reported as “lowering blood pressure in mammals”.
